Reference: patent publication US20040181820A1, “Nucleic acids for transforming fish cells and methods for their use” (priority 2001, published 2004)
Where two headings read alike, the source gives them in different places.

Columns and labels:
rainbow trout fry = conditions: for mortality of rainbow trout fry: 48 hours, fry 0.8 g
Method: Three different concentrations of ZnCl2 (1 μM, 10 μM, 100 μM) were assayed and analyzed for their toxic effects in rainbow trout fry (0.8 g).
Different concentrations of ZnCl2(10 mM, 5 mM, 2.5 mM, 1 mM, 100 μM, […] and 1 μM) were assayed and observed for their toxic effect in rainbow trout. […] After 30 days post-challenge, the correct dose (10 μM ZnCl2) is added to 90 fish per treatment. After 48 hours, PCR analysis with IHNV G and M specific primers is performed to verify that the DNA vaccines have been totally eliminated from muscle tissue of the vaccinated and Zinc exposed fish.

[1] = system: epithelioma papulosum cyprini cells (EPC)
Method: In vitro experiments in epithelioma papulosum cyprini cells (EPC) were performed to verify the mechanisin of action of the “suicide vectors”.
Cell transfection assays were made using Lipofectamine Plus following the instructions of the manufacturer (Gibco, BRL, Gaithersburg, Md.). After 48 hours, the cells were treated with 100 μM ZnCl2, an inducer of the MT promoter.
(100 μM). Cells transfected with the different constructs were left uninduced (a,d) or were treated with […] of ZnCl2 at 48 h. post-transfection (b,c,e,f).

EPC cells = conditions: 100, 150, or 200 μM
Method: Persistence of a DNA suicide vector (constructed according to Example 21) in transfected cells was assessed by a reverse transcriptase reaction coupled to PCR (RT-PCR). […] Approximately 24 hours after transfection, the cells were treated with non-toxic concentrations of ZnCl2 (100, 150, or 200 μM). Control cells were left untreated.
At 48 hours after the ZnCl2 addition, total RNA was isolated and an RT-PCR assay using IHNV-G specific primers (5′-[sequence]-3′ provided by SEQ. ID. NO: 2 and 5′-[sequence] [sequence]-3′ provided by SEQ. ID. NO: 3) was performed. PCR conditions were: 94° C. 30 sec, 55° C. 1 min and 72° C. 2 min.

[2] = system: rainbow trout MT promoter; test: pMT-CAT reporter in medaka hatchlings with and without zinc (Example 14); type: in vivo; conditions: medaka injected with pMT-CAT plasmid, stimulated with zinc vs unstimulated
Method: The activity of the rainbow trout MT promoter was examined by microinjecting plasmids containing pMT operably linked to the CAT reporter into fertilized eggs of medaka, as described in Inoue, et al., Supra. CAT activities were determined in hatchlings with and without stimulation with zinc. Only small trace levels of CAT activity were detected in unstimulated fish, but CAT activity increased in fish stimulated with zinc.

fish cells = test: Zinc induction of metallothionein promoter in fish cells (Example 14); type: cell-based; conditions: 100 μM zinc dose

Compound	mortality of rainbow trout fry (rainbow trout fry; 1 μM and 10 μM in water)	mortality of rainbow trout fry (rainbow trout fry; 100 μM in water)	concentrations toxic for rainbow trout fry (rainbow trout fry; fry 1 g)	effect of ZnCl2 on untransfected EPC control cells [1]	toxicity of ZnCl2 to transfected EPC cells (EPC cells)	CAT activity in hatchlings [2]	toxicity in fish cells (fish cells)	nucleic acid expression mediated by the metallothionein promoter (fish cells; fish cells)
[Cl-].[Cl-].[Zn+2] [ZnCl2]	no mortalities	all fish immersed in 100 μM ZnCl2 had died	higher than 10 μM	not obviously affected	non-toxic			
[Zn] [zinc]						increased	without toxicity	induces
